From patent US20090215778A1, “Alpha-substituted Arylmethyl Piperazine Pyrazolo [1,5-alpha]Pyrimidine Amide Derivatives” (priority 2007, published 2009)

What was measured:
HIV-1, NL4-3 strain = assay: Virus infection assay (virus entry and single-cycle infection); format: cell-based; conditions: Human immunodeficiency virus 1, NL43, TZM-b1, read-out: Nl4
Outline: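 TZM-b1 cells (CD4, CXCR4, CCR5; LTR-driven lacZ/luciferase reporters) were infected with HIV-1 NL4-3 (MOI 0.01) with 80 μg/mL DEAE-dextran in the presence of test compound, 4 h at 37 °C before adding complete medium. Infection was quantified one day post-infection as chemiluminescent β-galactosidase signal.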

[1] = molecular target: T1, HIV Env six-helix bundle (6HB) structure (Human immunodeficiency virus type 1 group M subtype B, UniProt P04579); assay: Six-helix bundle (6HB) assay; format: cell-based, HIV-1 (strain RF)
T1 construct: H9 cells chronically infected with HIV-1 (H9/HIV-1RF); endogenous in cells; host or cells: H9 cells chronically infected with HIV-1 strain RF (Env is made from the virus in the infected cells, not by transfection)
Outline: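 Chronically HIV-1 RF-infected H9 cells (12-40 days post-infection), 2.5×10^5 per well, were preincubated with compound for 30 min at 37 °C. sCD4 at 1 μg/mL was added for 1 h to trigger Env changes. 6HB-specific rabbit serum (1 h, 37 °C) was then added, followed by PE anti-rabbit (45 min, 4 °C), with flow cytometric fluorescence read-out.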

T1 sequence (P04579 32-519): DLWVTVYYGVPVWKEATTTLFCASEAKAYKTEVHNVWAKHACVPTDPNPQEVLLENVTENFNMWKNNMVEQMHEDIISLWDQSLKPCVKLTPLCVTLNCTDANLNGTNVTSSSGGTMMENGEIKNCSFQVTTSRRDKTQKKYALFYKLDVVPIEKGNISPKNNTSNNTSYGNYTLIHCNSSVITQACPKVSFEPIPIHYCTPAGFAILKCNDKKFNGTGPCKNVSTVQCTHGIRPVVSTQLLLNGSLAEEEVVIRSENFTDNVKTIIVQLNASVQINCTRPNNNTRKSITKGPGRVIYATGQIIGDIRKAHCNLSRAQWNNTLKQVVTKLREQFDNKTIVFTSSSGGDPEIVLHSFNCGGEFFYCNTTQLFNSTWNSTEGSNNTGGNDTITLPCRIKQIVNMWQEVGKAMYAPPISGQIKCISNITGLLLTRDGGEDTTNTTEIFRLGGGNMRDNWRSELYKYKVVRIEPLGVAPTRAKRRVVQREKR
T1 sequence (P04579 520-865): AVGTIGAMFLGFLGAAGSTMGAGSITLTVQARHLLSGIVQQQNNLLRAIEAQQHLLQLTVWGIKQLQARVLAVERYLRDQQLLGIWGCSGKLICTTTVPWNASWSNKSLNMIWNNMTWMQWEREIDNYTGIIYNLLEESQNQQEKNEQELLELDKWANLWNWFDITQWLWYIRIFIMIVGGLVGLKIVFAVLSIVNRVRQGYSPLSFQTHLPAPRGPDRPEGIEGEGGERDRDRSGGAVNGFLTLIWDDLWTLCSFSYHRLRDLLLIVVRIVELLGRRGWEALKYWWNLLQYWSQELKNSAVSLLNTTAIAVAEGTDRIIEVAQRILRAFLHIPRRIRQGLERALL

`COc1ccc(-c2nc3c(C(=O)N4CCN(C(CO)c5cccc6c5OC(F)(F)O6)C[C@H]4C)cnn3c(C(F)(F)F)c2C)cc1` (stereo partly drawn) [methanone, [(2R)-4-[1-(2,2-difluoro-1,3-benzodioxol-4-yl)-2-hydroxyethyl]-2-methyl-1-piperazinyl][5-(4-methoxyphenyl)-6-methyl-7-(trifluoromethyl)pyrazolo[1,5-α]pyrimidin-3-yl]-] was tested, and the IC50 (HIV-1, NL4-3 strain) was < 1000 nM and the IC50 [1] was < 1000 nM.
`COc1ccc(-c2nc3c(C(=O)N4CCN(C(CO)c5cccc(F)c5F)C[C@H]4C)cnn3c(C(F)(F)F)c2C)cc1` (stereo partly drawn) [methanone, [(2R)-4-[1-(2,3-difluorophenyl)-2-hydroxyethyl]-2-methyl-1-piperazinyl][5-(4-methoxyphenyl)-6-methyl-7-(trifluoromethyl)pyrazolo[1,5-α]pyrimidin-3-yl]-] was tested, and the IC50 (HIV-1, NL4-3 strain) was < 1000 nM and the IC50 [1] was < 1000 nM.
For `COc1ccc(-c2nc3c(C(=O)N4CCN(C(CO)c5cccc(OC)c5OC)C[C@H]4C)cnn3c(C(F)(F)F)c2C)cc1` (stereo partly drawn) [methanone, [(2R)-4-[1-(2,3-dimethoxyphenyl)-2-hydroxyethyl]-2-methyl-1-piperazinyl][5-(4-methoxyphenyl)-6-methyl-7-(trifluoromethyl)pyrazolo[1,5-α]pyrimidin-3-yl]-], the IC50 (HIV-1, NL4-3 strain) was < 1000 nM and the IC50 [1] was < 1000 nM.
For `COc1ccc(-c2nc3c(C(=O)N4CCN(C(CO)c5ccc(F)cc5F)C[C@H]4C)cnn3c(C(F)(F)F)c2C)cc1` (stereo partly drawn) [methanone, [(2R)-4-[1-(2,4-difluorophenyl)-2-hydroxyethyl]-2-methyl-1-piperazinyl][5-(4-methoxyphenyl)-6-methyl-7-(trifluoromethyl)pyrazolo[1,5-α]pyrimidin-3-yl]-], the IC50 (HIV-1, NL4-3 strain) was < 1000 nM and the IC50 [1] was < 1000 nM.
`COc1ccc(-c2nc3c(C(=O)N4CCN(C(CO)c5ccc(OC)cc5OC)C[C@H]4C)cnn3c(C(F)(F)F)c2C)cc1` (stereo partly drawn) [methanone, [(2R)-4-[1-(2,4-dimethoxyphenyl)-2-hydroxyethyl]-2-methyl-1-piperazinyl][5-(4-methoxyphenyl)-6-methyl-7-(trifluoromethyl)pyrazolo[1,5-α]pyrimidin-3-yl]-] was tested, and the IC50 (HIV-1, NL4-3 strain) was < 1000 nM and the IC50 [1] was < 1000 nM.
`COc1ccc(-c2nc3c(C(=O)N4CCN(C(CO)c5cc(F)ccc5F)C[C@H]4C)cnn3c(C(F)(F)F)c2C)cc1` (stereo partly drawn) [methanone, [(2R)-4-[1-(2,5-difluorophenyl)-2-hydroxyethyl]-2-methyl-1-piperazinyl][5-(4-methoxyphenyl)-6-methyl-7-(trifluoromethyl)pyrazolo[1,5-α]pyrimidin-3-yl]-] was tested, and the IC50 (HIV-1, NL4-3 strain) was < 1000 nM and the IC50 [1] was < 1000 nM.
For `COc1ccc(-c2nc3c(C(=O)N4CCN(C(CO)c5cc(OC)ccc5OC)C[C@H]4C)cnn3c(C(F)(F)F)c2C)cc1` (stereo partly drawn) [methanone, [(2R)-4-[1-(2,5-dimethoxyphenyl)-2-hydroxyethyl]-2-methyl-1-piperazinyl][5-(4-methoxyphenyl)-6-methyl-7-(trifluoromethyl)pyrazolo[1,5-α]pyrimidin-3-yl]-], the IC50 (HIV-1, NL4-3 strain) was < 1000 nM and the IC50 [1] was 1100 to 10000 nM.
In the case of `COc1ccc(-c2nc3c(C(=O)N4CCN(C(CO)c5c(F)ccc(OC)c5F)C[C@H]4C)cnn3c(C(F)(F)F)c2C)cc1` (stereo partly drawn) [methanone, [(2R)-4-[1-(2,6-difluoro-3-methoxyphenyl)-2-hydroxyethyl]-2-methyl-1-piperazinyl][5-(4-methoxyphenyl)-6-methyl-7-(trifluoromethyl)pyrazolo[1,5-α]pyrimidin-3-yl]-], the IC50 (HIV-1, NL4-3 strain) is reported as < 1000 nM and the IC50 [1] is reported as < 1000 nM.
For `COc1ccc(-c2nc3c(C(=O)N4CCN(C(CO)c5c(F)cccc5F)C[C@H]4C)cnn3c(C(F)(F)F)c2C)cc1` (stereo partly drawn) [methanone, [(2R)-4-[1-(2,6-difluorophenyl)-2-hydroxyethyl]-2-methyl-1-piperazinyl][5-(4-methoxyphenyl)-6-methyl-7-(trifluoromethyl)pyrazolo[1,5-α]pyrimidin-3-yl]-], the IC50 (HIV-1, NL4-3 strain) was < 1000 nM and the IC50 [1] was < 1000 nM.
`COc1ccc(-c2nc3c(C(=O)N4CCN(C(CO)c5ccc(OC)nc5OC)C[C@H]4C)cnn3c(C(F)(F)F)c2C)cc1` (stereo partly drawn) [methanone, [(2R)-4-[1-(2,6-dimethoxy-3-pyridinyl)-2-hydroxyethyl]-2-methyl-1-piperazinyl][5-(4-methoxyphenyl)-6-methyl-7-(trifluoromethyl)pyrazolo[1,5-α]pyrimidin-3-yl]-] was tested, and the IC50 (HIV-1, NL4-3 strain) was < 1000 nM and the IC50 [1] was < 1000 nM.
In the case of `COc1ccc(-c2nc3c(C(=O)N4CCN(C(CO)c5ccccc5N)C[C@H]4C)cnn3c(C(F)(F)F)c2C)cc1` (stereo partly drawn) [methanone, [(2R)-4-[1-(2-aminophenyl)-2-hydroxyethyl]-2-methyl-1-piperazinyl][5-(4-methoxyphenyl)-6-methyl-7-(trifluoromethyl)pyrazolo[1,5-α]pyrimidin-3-yl]-], the IC50 (HIV-1, NL4-3 strain) is reported as 1100 to 10000 nM and the IC50 [1] is reported as 1100 to 10000 nM.
For `COc1ccc(-c2nc3c(C(=O)N4CCN(C(CO)c5cc6ccccc6o5)C[C@H]4C)cnn3c(C(F)(F)F)c2C)cc1` (stereo partly drawn) [methanone, [(2R)-4-[1-(2-benzofuranyl)-2-hydroxyethyl]-2-methyl-1-piperazinyl][5-(4-methoxyphenyl)-6-methyl-7-(trifluoromethyl)pyrazolo[1,5-α]pyrimidin-3-yl]-], the IC50 (HIV-1, NL4-3 strain) was < 1000 nM and the IC50 [1] was < 1000 nM.
In the case of `COc1ccc(-c2nc3c(C(=O)N4CCN(C(CO)c5ccccc5Br)C[C@H]4C)cnn3c(C(F)(F)F)c2C)cc1` (stereo partly drawn) [methanone, [(2R)-4-[1-(2-bromophenyl)-2-hydroxyethyl]-2-methyl-1-piperazinyl][5-(4-methoxyphenyl)-6-methyl-7-(trifluoromethyl)pyrazolo[1,5-α]pyrimidin-3-yl]-], the IC50 (HIV-1, NL4-3 strain) is reported as < 1000 nM and the IC50 [1] is reported as < 1000 nM.
With `COc1ccc(-c2nc3c(C(=O)N4CCN(C(CO)c5cccnc5Cl)C[C@H]4C)cnn3c(C(F)(F)F)c2C)cc1` (stereo partly drawn) [methanone, [(2R)-4-[1-(2-chloro-3-pyridinyl)-2-hydroxyethyl]-2-methyl-1-piperazinyl][5-(4-methoxyphenyl)-6-methyl-7-(trifluoromethyl)pyrazolo[1,5-α]pyrimidin-3-yl]-] the IC50 (HIV-1, NL4-3 strain) was < 1000 nM and the IC50 [1] was < 1000 nM.
In the case of `COc1ccc(-c2nc3c(C(=O)N4CCN(C(CO)c5ccccc5Cl)C[C@H]4C)cnn3c(C(F)(F)F)c2C)cc1` (stereo partly drawn) [methanone, [(2R)-4-[1-(2-chlorophenyl)-2-hydroxyethyl]-2-methyl-1-piperazinyl][5-(4-methoxyphenyl)-6-methyl-7-(trifluoromethyl)pyrazolo[1,5-α]pyrimidin-3-yl]-], the IC50 (HIV-1, NL4-3 strain) is reported as < 1000 nM and the IC50 [1] is reported as < 1000 nM.
With `CCOc1ncccc1C(CO)N1CCN(C(=O)c2cnn3c(C(F)(F)F)c(C)c(-c4ccc(OC)cc4)nc23)[C@H](C)C1` (stereo partly drawn) [methanone, [(2R)-4-[1-(2-ethoxy-3-pyridinyl)-2-hydroxyethyl]-2-methyl-1-piperazinyl][5-(4-methoxyphenyl)-6-methyl-7-(trifluoromethyl)pyrazolo[1,5-α]pyrimidin-3-yl]-] the IC50 (HIV-1, NL4-3 strain) was < 1000 nM and the IC50 [1] was < 1000 nM.
In the case of `CCOc1ccccc1C(CO)N1CCN(C(=O)c2cnn3c(C(F)(F)F)c(C)c(-c4ccc(OC)cc4)nc23)[C@H](C)C1` (stereo partly drawn) [methanone, [(2R)-4-[1-(2-ethoxyphenyl)-2-hydroxyethyl]-2-methyl-1-piperazinyl][5-(4-methoxyphenyl)-6-methyl-7-(trifluoromethyl)pyrazolo[1,5-α]pyrimidin-3-yl]-], the IC50 (HIV-1, NL4-3 strain) is reported as < 1000 nM and the IC50 [1] is reported as < 1000 nM.
`COc1ccc(-c2nc3c(C(=O)N4CCN(C(CO)c5cccc(OC)c5F)C[C@H]4C)cnn3c(C(F)(F)F)c2C)cc1` (stereo partly drawn) [methanone, [(2R)-4-[1-(2-fluoro-3-methoxyphenyl)-2-hydroxyethyl]-2-methyl-1-piperazinyl][5-(4-methoxyphenyl)-6-methyl-7-(trifluoromethyl)pyrazolo[1,5-α]pyrimidin-3-yl]-] was tested, and the IC50 (HIV-1, NL4-3 strain) was < 1000 nM and the IC50 [1] was < 1000 nM.
In the case of `COc1ccc(-c2nc3c(C(=O)N4CCN(C(CO)c5c(F)cccc5OC)C[C@H]4C)cnn3c(C(F)(F)F)c2C)cc1` (stereo partly drawn) [methanone, [(2R)-4-[1-(2-fluoro-6-methoxyphenyl)-2-hydroxyethyl]-2-methyl-1-piperazinyl][5-(4-methoxyphenyl)-6-methyl-7-(trifluoromethyl)pyrazolo[1,5-α]pyrimidin-3-yl]-], the IC50 (HIV-1, NL4-3 strain) is reported as < 1000 nM and the IC50 [1] is reported as < 1000 nM.
For `COc1ccc(-c2nc3c(C(=O)N4CCN(C(CO)c5ccccc5F)C[C@H]4C)cnn3c(C(F)(F)F)c2C)cc1` (stereo partly drawn) [methanone, [(2R)-4-[1-(2-fluorophenyl)-2-hydroxyethyl]-2-methyl-1-piperazinyl][5-(4-methoxyphenyl)-6-methyl-7-(trifluoromethyl)pyrazolo[1,5-α]pyrimidin-3-yl]-], the IC50 (HIV-1, NL4-3 strain) was < 1000 nM and the IC50 [1] was < 1000 nM.
In the case of `COc1ccc(-c2nc3c(C(=O)N4CCN(C(CO)c5ccccc5F)C[C@H]4C)cnn3c(C(F)(F)F)c2C)cn1` (stereo partly drawn) [methanone, [(2R)-4-[1-(2-fluorophenyl)-2-hydroxyethyl]-2-methyl-1-piperazinyl][5-(6-methoxy-3-pyridinyl)-6-methyl-7-(trifluoromethyl)pyrazolo[1,5-α]pyrimidin-3-yl]-], the IC50 (HIV-1, NL4-3 strain) is reported as < 1000 nM and the IC50 [1] is reported as < 1000 nM.
With `COc1ccc(-c2nc3c(C(=O)N4CCN(C(CO)c5ccco5)C[C@H]4C)cnn3c(C(F)(F)F)c2C)cc1` (stereo partly drawn) [methanone, [(2R)-4-[1-(2-furanyl)-2-hydroxyethyl]-2-methyl-1-piperazinyl][5-(4-methoxyphenyl)-6-methyl-7-(trifluoromethyl)pyrazolo[1,5-α]pyrimidin-3-yl]-] the IC50 (HIV-1, NL4-3 strain) was < 1000 nM and the IC50 [1] was < 1000 nM.
